Assay results from patent US6583127B1, “Use of etherlysophospholipids as antiinflammatory agents” (Inkeysa. SA, priority 1998, dated 2003).

What was measured:
CD44 = assay: Cell surface expression of CD44 in human neutrophils (immunofluorescence flow cytometry); assay type: cell-based; settings: Medium = 100
Source text: (§1) Isolation and treatment of neutrophils.
(§2) Monoclonal antibodies. […] The antibodies are commercially available.
(§3) Immunofluorescence flow cytometry. […] Results were expressed as relative MFI (rMFI), such that
(§4) rMFI=(MFIagent×100)/MFImedium
(§5) Background fluorescence was substracted from all values.

CD11a = assay: Cell surface expression of CD11a in human neutrophils (immunofluorescence flow cytometry); assay type: cell-based; settings: Medium = 100
Source text: as §1, §2, §3, §4, §5

[1] = system: Mouse bone marrow derived macrophages; assay: Superoxide anion generation in macrophages (lucigenin chemoluminescent assay); assay type: cell-based; settings: 1 or 3 μg/ml, 24 h; Zymosan-initiated; versus untreated controls (FIG. 2)
Procedure: Mouse bone marrow derived macrophages were incubated for 24 h at 37° C. in MEM+10% FCS to a concentration of 10^6 cells/ml in the absence or presence of ELPs IES01 and IEC01 at the concentration of 1 or 3 μg/ml. The O2^− free radicals were measured in a chemoluminescent assay that detects the photons generated by the reaction of superoxid anions with lucigenin. The liberated photons are counted with a luminometer Microlumat LB96P, Berthold, Wildbad, Germany. Collected macrophages are resuspended in 0.2 ml at a concentration of 10^6/ml in HEPES buffered medium containing 540 μg/ml lucigenin. Superoxid production is initiated by adding 50 mg of Zymosan and the emission of photons is measured with a luminometer for 2 h.

[2] = system: PGE2 production in murine fibroblasts 3T3; assay: PGE2 measurement in 3T3 cells (enzyme immunoassay); assay type: cell-based, Mouse
Procedure: (§6) Cell culture. Human promyelocytic HL-60 cells and promonocytic U937 cells were grown in RPMI-1640 culture medium supplemented with 10% (v/v) heat-inactivated fetal calf serum, 2 mM L-glutamine, 100 units/ml penicillin and 24 μg/ml gentamicin. Mouse 3T3 fibroblasts were grown in Dulbecco's modified Eagle's medium (DMEM) supplemented with 10% (v/v) heat-inactivated fetal calf serum, 2 mM L-glutamine, 100 units/ml penicillin and 24 μg/ml gentamicin. Cells were incubated at 37° C. in a humidified atmosphere at 5% CO2 and 95% air.
Prostaglandin E2 (PGE2) measurement. 3T3 cells (1.5×10^5 in 100 μl in complete DMEM culture medium) were incubated overnight at 37° C. (5% CO2) in 96-well microtitre plates (tissue-culture grade). Then, the distinct agents were added in 100 μl complete DMEM culture medium for 20 min at 37° C. After washing thoroughly the cells with PBS, cells were lysed and intracellular PGE2 was measured using an enzyme immunoassay kit (Amersham Pharmacia Biotech, Buckinghamshire, UK) following the manufacturer's instructions. Data obtained in duplicate measurements were converted into actual amounts of PGE2 using a calibration curve run in parallel with defined amounts of PGE2.

cytosolic PLA2 = assay: Semiquantitative RT-PCR of cytosolic PLA2 expression in HL-60 cells; assay type: cell-based, human; settings: HL-60 cells (FIG. 9)
Procedure: as §6
Reverse transcriptase polymerase chain reaction (RT-PCR). Total RNA was extracted from human neutrophils and cell lines using TRIZOL reagent (GIBCO-BRL) following the manufacturer's instructions. RNA preparations were carefully checked by gel electrophoresis and found to be free of DNA contamination. For the RT reaction, total RNA (10 μg) was primed with oligo-dt and reverse-transcribed into cDNA with 30 units of M-MLV reverse transcriptase from Promega according to manufacturer's instructions in a final volume of 20 μL. The mixture was incubated at 37° C. for 90 min. The generated cDNA was used for the semi-quantitative RT-PCR and the β-actin gene was used as an internal control. […]

[3] = Body weight evaluation in the TNB colitis rat model; assay type: in vivo; settings: Wistar rat, Mean ± SEM
Procedure: The therapeutic potential for the treatment of ulcerative colitis of IEC01 at 2.5 and 5 mg/kg and IES01 at 2.5 mg/kg, was evaluated after their administration by oral route during 14 days (7 days of preventive treatment and 7 days of therapeutic treatment) using the rat model of experimental colitis induced by TNB (2,4,6-trinitrobenzenesulphonic acid). As reference parameters, the body weight, wet colon weight and score macroscopic evaluation were evaluated after 24 hours and after 7 days of the intraluminal administration of TNB in the colon.

CCCCCCCCCCCCCCCCCCOCC(COP(=O)([O-])OCC[N+](C)(C)C)OC (centres unmarked) [IEC01, Edelfosine]
CD44 cell surface expression (rMFI) (CD44; 10 ng/ml): 97 ± 2 | CD44 cell surface expression (rMFI) (CD44; 100 ng/ml): 84 ± 4 | CD44 cell surface expression (rMFI) (CD44; 500 ng/ml): 75 ± 7 | CD44 cell surface expression (rMFI) (CD44; 1 μg/ml): 48 ± 9 | CD44 cell surface expression (rMFI) (CD44; 5 μg/ml): 40 ± 8 | CD11a cell surface expression (rMFI) (CD11a; 10 ng/ml): 99 ± 3 | CD11a cell surface expression (rMFI) (CD11a; 100 ng/ml): 102 ± 5 | CD11a cell surface expression (rMFI) (CD11a; 500 ng/ml): 97 ± 8 | CD11a cell surface expression (rMFI) (CD11a; 1 μg/ml): 101 ± 6 | CD11a cell surface expression (rMFI) (CD11a; 5 μg/ml): 96 ± 5 | amount of O2− free radicals produced by macrophages (inhibition, in words) [1]: higher | pg PGE2 (intracellular) ([2]; 3T3 cells, 10 μM, 20 min at 37° C., Control 112 ± 21): 148 ± 22 pg | effect on PGE2 production (in words) ([2]; 3T3 fibroblasts, ionomycin-induced PGE2): no significant inhibition | mRNA expression of cytosolic PLA2 (cytosolic PLA2): did not affect | Body weight DAY 1 ([3]; 2.5 mg/Kg p.o.): 233.5 ± 3.07 g | Body weight DAY 2 ([3]; 2.5 mg/Kg p.o.): 236.0 ± 3.42 g | Body weight DAY 4 ([3]; 2.5 mg/Kg p.o.): 240.3 ± 3.60 g | Body weight DAY 7 ([3]; 2.5 mg/Kg p.o.): 210.6 ± 3.05 g | Body weight DAY 8 ([3]; 2.5 mg/Kg p.o.): 214.8 ± 3.41 g | Body weight DAY 11 ([3]; 2.5 mg/Kg p.o.): 234.4 ± 4.53 g | Body weight DAY 12 ([3]; 2.5 mg/Kg p.o.): 241.0 ± 4.04 g | Body weight DAY 13 ([3]; 2.5 mg/Kg p.o.): 244.2 ± 4.16 g | Body weight DAY 14 ([3]; 2.5 mg/Kg p.o.): 249.4 ± 4.42 g | Body weight DAY 1 ([3]; 5.0 mg/Kg p.o): 227.4 ± 1.21 g | Body weight DAY 2 ([3]; 5.0 mg/Kg p.o): 229.1 ± 1.05 g | Body weight DAY 4 ([3]; 5.0 mg/Kg p.o): 235.9 ± 1.63 g | Body weight DAY 7 ([3]; 5.0 mg/Kg p.o): 207.4 ± 1.90 g | Body weight DAY 8 ([3]; 5.0 mg/Kg p.o): 216.2 ± 2.56 g | Body weight DAY 11 ([3]; 5.0 mg/Kg p.o): 237.6 ± 3.35 g | Body weight DAY 12 ([3]; 5.0 mg/Kg p.o): 245.2 ± 3.17 g | Body weight DAY 13 ([3]; 5.0 mg/Kg p.o): 250.6 ± 3.31 g | Body weight DAY 14 ([3]; 5.0 mg/Kg p.o): 253.6 ± 5.34 g
